Test results as given in patent US6492563B2, “Fragrance precursors” (Givaudan SA, priority 2000, dated 2002).

Columns and labels:
Type in all cases: physicochemical
[1] = Stability tests in aqueous buffer solutions; settings: for Stability at pH 2.5: aqueous buffer pH 2.5, 24 h at 37° C.; for Stability at pH 7: aqueous buffer pH 7, 24 h at 37° C.; for Stability at pH 9.5: aqueous buffer pH 9.5, 24 h at 37° C.
[2] = Photolysis of phenacyl acetals (I) in solution, mercury lamp, GC-FID; parameters: key: 0: no cleavage; +: slow cleavage; ++: medium cleavage; +++: fast cleavage; settings: solution (ethanol), mercury lamp 150 W, Pyrex, one hour irradiation
Description: Photorelease assays were conducted on solutions (typical concentrations of precursors (I): 0.05% to 0.1% g/v) in organic solvents (preferably ethanol) or on cotton towels after deposition of the phenacyl acetals (I), as described below in the example 3.
The solutions were irradiated with a mercury lamp (150 W) in a borosilicate glass apparatus (Pyrex®) so as to limit the irradiation window to mainly the UVA and UVB spectrum of sun light. The alcoholic solution was irradiated for one hour and samples taken every 15 minutes to analyze the extent of the photolysis.
The presence of the aryl ketone (II) and ester (III) after photolysis in solutions was determined by using GC retention times. Samples (0.2 μl) were injected (on column injection) without further dilution. Gas chromatography-flame ionization detection (GC-FID) was carried out with a Fisons-GC 8000 series apparatus, using a J&W Scientific DB-5 capillary column (30 m, 0.32 mm id, 0.25 μm film, He carrier gas, 85 kPa).
Whereas precursors derived from Oranger Crystals® cleaved fairly slowly (FIG. 1), those derived from acetanisole cleaved fast and Fixolide® precursors even faster. The rates are calculated from the GC analysis (corresponding peak area).

[3] = Hand washing tests: partition between water and fabric (substantivity), HPLC; settings: for Amounts recovered: Water: extract of aqueous washing liquor after hand washing; for Amounts recovered: Water, % (±10%): extract of aqueous washing liquor; for Amounts recovered: Water, % (±10%) / Amounts recovered: Towel extract, % (±10%): of amount incorporated; for Amounts recovered: Towel extract: extract of dried towels after hand washing; for Amounts recovered: Towel extract, % (±10%): extract of dried towels
Description: (§1) Washing tests were performed according to the following hand washing test cedure with OMO Progress® base which contains the following ingredients:
(§2) 1- The washing powder (2.1 g) containing the phenacyl acetal (I, about 21 mg, 1%) was dissolved in water (500 ml) at room temperature.
2- The towels (35 g) were added to the liquor and mixed with a glass stick.
3- Towels were soaked for 45 minutes with stirring every 15 minutes.
4- The wringed towels were rinsed three times with fresh water (250 ml) with intermediate wringing.
5- Towels were allowed to dry in a dark and odorless place before analysis or evaluation.
The towels were extracted with an organic solvent (preferably t-butyl methyl ether) using a Dionex ASE200 Accelerated Solvent Extractor and the extracts were analyzed by HPLC (Hewlett Packard Series 1100, column: Zorbax Eclipse XDB-C18, dimensions 15 cm×4.6 mm×5 μm).
The washing liquor was extracted with an organic solvent (preferably t-butyl methyl ether, 250 ml) and analyzed by HPLC as above.
The aqueous liquors were extracted with an organic solvent (preferably t-butyl methyl ether) and analytical HPLC gave the results in table 5, which are related to partition between water and fabric.

[4] = Stability in washing liquor (washing conditions, OMO Progress base), HPLC; settings: for Stability at pH 11: pH 11, washing conditions as in example 5; for Amount ecovered / Recovered: washing liquor stirred one hour at room temperature; for Amount ecovered: extraction, HPLC; for Recovered: relative to amount incorporated
Description: as §1, §2
The washing liquor (2.1 g washing powder containing 1% phenacyl acetal (I) in 500 ml water), according to 1 in the above described washing procedure, was stirred during one hour at room temperature. Extraction with an organic solvent (preferably t-butyl methyl ether) to recover organic compounds and analysis with HPLC gave the amounts of recovered phenacyl acetal (I), table 4.

Compound	Stability at pH 2.5 [1]	Stability at pH 7 [1]	Stability at pH 9.5 [1]	UV-test (release of aryl ketone (II) and ester (III), cleavage) [2]	Amounts recovered: Water [3] [mg]	Amounts recovered: Water, % (±10%) [3] [%]	Amounts recovered: Towel extract [3] [mg]	Amounts recovered: Towel extract, % (±10%) [3] [%]	Stability at pH 11 [4]	Amount ecovered [4] [mg]	Recovered [4] [%]
CCOC(C)OCC(=O)c1ccc(OC)cc1 (centres unmarked) [compound 1, 2-(1-Ethoxy-ethoxy)-1-(4-methoxy-phenyl)-ethanone]	unstable	stable	stable	++	–	–	–	–	–	–	–
COc1ccc(C(=O)COC(C)OCCc2ccccc2)cc1 (centres unmarked) [compound 2, 1-(4-Methoxy-phenyl)-2-(1-phenethyloxy-ethoxy)-ethanone]	unstable	stable	stable	++	15	63	10.5	44	stable	18.5	83
CC/C=C\CCOC(C)OCC(=O)c1ccc(OC)cc1 (centres unmarked) [compound 3, 2-(1-Hex-3(Z)-enyloxy-ethoxy)-1-(4-methoxy-phenyl)-ethanone]	unstable	stable	stable	++	13.3	59	14	62	stable	22.3	100
COc1ccc(C(=O)COC(C)OCCC(C)CC(C)(C)C)cc1 (centres unmarked) [compound 4, 1-(4-Methoxy-phenyl)-2-[1-(3,5,5-trimethyl-hexyloxy)-ethoxyl]-ethanone]	unstable	stable	stable	++	17.5	75	8.9	38	stable	23.5	100
CCCCCCOC(C)OCC(=O)c1ccc(OC)cc1 (centres unmarked) [compound 5, 2-(1-Hexyloxy-ethoxy)-1-(4-methoxy-phenyl)-ethanone]	unstable	stable	stable	++	18.4	73	11.7	46	stable	25.7	100
COc1ccc(C(=O)COC(C)OCCCc2ccccc2)cc1 (centres unmarked) [compound 6, 1-(4-Methoxy-phenyl)-2-[1-(3-phenyl-propoxy)-ethoxy]-ethanone]	unstable	stable	stable	++	14.5	65	17	47	stable	20.8	94

The next lines start with the values.

Stability at pH 2.5 [1]	Stability at pH 7 [1]	Stability at pH 9.5 [1]	UV-test (release of aryl ketone (II) and ester (III), cleavage) [2]	Amounts recovered: Water [3] [mg]	Amounts recovered: Water, % (±10%) [3] [%]	Amounts recovered: Towel extract [3] [mg]	Amounts recovered: Towel extract, % (±10%) [3] [%]	Stability at pH 11 [4]	Amount ecovered [4] [mg]	Recovered [4] [%]	Compound
–	–	–	++	–	–	–	–	–	–	–	COc1ccc(C(=O)COC(C)OCCC(C)CCC=C(C)C)cc1 (centres unmarked) [compound 7, 2-[1-(3,7-Dimethyl-oct-6-enyloxy)-ethoxy]-1-(4-methoxy-phenyl)-ethanone]
stable	stable	stable	+++	16.3	69	8.7	42	stable	22.2	99	CCCCCCOC(C)OCC(=O)c1cc2c(cc1C)C(C)(C)C(C)CC2(C)C (centres unmarked) [compound 8, 1-(3,5,5,6,8,8-Hexamethyl-5,6,7,8-tetrahydro-naphthalen-2-yl)-2-(1-hexyloxy-ethoxy)-ethanone]
stable	stable	stable	+++	15.3	67	10.3	45	stable	20.0	96	CC/C=C\CCOC(C)OCC(=O)c1cc2c(cc1C)C(C)(C)C(C)CC2(C)C (centres unmarked) [compound 9, 1-(3,5,5,6,8,8-Hexamethyl-5,6,7,8-tetrahydro-naphthalen-2-yl)-2-(1-hex-3(Z)-enyloxy-ethoxy)-ethanone]
–	–	–	+++	–	–	–	–	–	–	–	CCOC(C)OCC(=O)c1cc2c(cc1C)C(C)(C)C(C)CC2(C)C (centres unmarked) [compound 10, 2-(1-Ethoxy-ethoxy)-1-(3,5,5,6,8,8-hexamethyl-5,6,7,8-tetrahydro-naphthalen-2-yl)-ethanone]
–	–	–	+	–	–	–	–	–	–	–	CCCCCCOC(C)OCC(=O)c1ccc2ccccc2c1 (centres unmarked) [compound 11, 2-(1-Hexyloxy-ethoxy)-1-naphthalen-2-yl-ethanone]
–	–	–	+	–	–	–	–	–	–	–	CC(C)=CCCC(C)CCOC(C)OCC(=O)c1ccc2ccccc2c1 (centres unmarked) [compound 12, 2-[1-(3,7-Dimethyl-oct-6-enyloxy)-ethoxy-]1-naphthalen-2-yl-ethanone]
–	–	–	++	–	–	–	–	–	–	–	COc1ccc(C(=O)COC(Cc2ccccc2)OC)cc1 (centres unmarked) [compound 15, 1-(4-Methoxy-phenyl)-2-(1-methoxy-2-phenyl-ethoxy)-ethanone]
